What was measured:
[1] = system: KB (nasopharyngeal carcinoma)
[2] = system: Human oral cancer cells KB-VIN; assay: Anti-cancer activity, KB-VIN cells; assay type: cell-based; details: KB-VIn (anti-drug-resistant nasopharyngeal carcinoma)

## [1,4-(4R)-diphenyl-2-oxazolinyl benzene] platinum nitrate complex [Platinum complex (I)]
[1]
  inhibitory activity ED50: < 10.0 µg/mL
[2]
  inhibitory activity ED50: < 10.0 µg/mL

From patent US11225499B2, “Chiral platinum complex, method for preparing the same, and method for using the same” (Hefei University of Technology, priority 2019, dated 2022)
